These results are taken from PubChem BioAssay AID618 (Sanford-Burnham Center for Chemical Genomics, 2007).

Calls of active or inactive are those of the source. No rule for the calls is given here.

The subject of this assay is MT1-MMP promoter luciferase reporter cells, luminescence. Nature of the assay: MT1-MMP gene expression reporter suppression – cell-based, luciferase reporter, luminescence (AID 618).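 Also: actives suppress MT1-MMP promoter-driven transcription so potencies describe inhibitors.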
`O=C(/C=C\Nc1ccccn1)c1ccc(Cl)cc1`: the EC50 is 1.18 µM. Turning to `Cc1cc(-c2csc(N)n2)c(C)n1CCc1ccccc1`, the EC50 is 13.2 µM. With `Cc1ccc2nc(-c3cc(N)cc(N)c3)oc2c1`, the EC50 was 1.57 µM.

Take `Cc1cc(C(=O)Nc2cccc(C(=O)O)c2)oc1C`: the concentration for a half-maximal effect (EC50) is 0.82 µM. Take `COC(=O)Cc1ccc(NC(=O)c2ccc(C(C)(C)C)cc2)cc1`: the EC50 is 0.31 µM. As for `Cc1ccc(-c2nc3cc(NC(=O)C(C)C)ccc3o2)cc1`, the EC50 was 5.62 µM.

`O=C(c1c(Cl)nc2sccn12)N1CCN(c2cccc(Cl)c2)CC1`: the EC50 is 48.6 µM.

Turning to `Brc1ccccc1-c1nc(-c2ccccc2)no1`, the half-maximal effective concentration (EC50) was 6.92 µM. For the compound `O=C(/C=C\Nc1ccccn1)c1ccccc1`, the EC50 is 2.01 µM.

With `CCC/C(O)=C1\C(=O)CC(C)(C)CC1=Nc1ccc(OC)cc1OC`, the EC50 is 23.6 µM. `COc1ccc2nc(-c3ccc(N)cc3)[nH]c2c1`: the EC50 was > 50 µM (inactive).

Take `O=C(Nc1ccc(N2CCCC2)c(Cl)c1)c1ccco1`: the EC50 is 2.68 µM.

In the case of `c1ccc(-c2nc3cc4ccccc4cc3[nH]2)nc1`, the EC50 was 0.8 µM. `CCCCCCOc1ccc(CN2CCN(CCO)CC2)cc1`: the EC50 was 12.1 µM. Turning to `Cc1cc(C)c2c(N)c(C(=O)Nc3ncc(C)s3)sc2n1`, the EC50 is 0.21 µM. Next, `Cc1ccc(C(=O)Nc2cccc(C(=O)O)c2)cc1`: 0.66 µM; `CN(C)CCCNS(=O)(=O)c1ccc(N2CCC(c3ccc(Cl)cc3)=N2)cc1`: 12 µM; `Cc1ccc(-c2nc3n(n2)Cc2ccccc2-3)cc1`: 1.49 µM.

With `CCN(CC)c1ccc2cc(NC(=O)CCC(=O)O)c(=O)oc2c1`, the EC50 was 0.67 µM.

`Fc1ccccc1OCCSc1nnnn1-c1ccccc1`: the EC50 was 12.7 µM. For the compound `Cc1ccc(OCc2nc(-c3ccccn3)no2)c(Br)c1`, the EC50 is 2.17 µM. In the case of `CCCN1C=CC(=C2C(=O)c3ccccc3C2=O)C=C1`, the EC50 was under 0.098 µM. Consider `O=S1(=O)Nc2c(ccc3cccnc23)-c2ccccc21`, for which the EC50 was 24.6 µM. With `CCOc1ccc(-c2cc(CCCC(=O)Nc3cc(OC)ccc3OC)no2)cc1`, the EC50 was 3.5 µM. On to `COc1ccc(C(=O)Nn2c(SCC(=O)NCc3ccccc3)nc3ccccc3c2=O)cc1`, for which the EC50 is 1.29 µM. For `Cc1ccc(C(=O)Nc2cccc(C(=O)O)c2)cc1S(=O)(=O)N1CCCCC1`, the EC50 is 7.25 µM. Take `COc1ccc(C(=O)Nn2c(SCC(=O)NCc3ccco3)nc3ccccc3c2=O)cc1`: the EC50 was 1.14 µM. Regarding `C=CCn1c(C)cc(C(=O)CSc2ccc(NC(C)=O)cc2)c1C`, the EC50 is 2.37 µM. Regarding `O=C(CCCOc1ccccc1)N1CCCCC1`, the EC50 is 6.96 µM.

Turning to `COc1ccc(-c2cc(C(=O)O)c(C)o2)cc1OC`, the EC50 was 3.55 µM. Regarding `O=C(CCCc1ccccc1)c1ccc2c(c1)OCCO2`, the EC50 is 0.28 µM. On to `Cc1cc(C)c(OCC(=O)Nc2cccc(O)c2)cc1C`, for which the EC50 was 26.6 µM.

As for `c1ccc(OCCSc2nnc3sc4ccccc4n23)cc1`, the EC50 is 1.43 µM. Regarding `CCN=C1NN=C(c2ccc(C)cc2)CS1`, the EC50 is 1.98 µM.

Regarding `Cc1csc(NC(=O)c2cc3c(s2)CCCC3)n1`, the EC50 was 1.26 µM. With `O=C1C(c2ccnc3ccccc23)=C(O)c2ccccc21`, the EC50 was > 50 µM (inactive). For `Cc1ccccc1NC(=O)c1cnc2ccccn2c1=O`, the EC50 is 2.13 µM. In the case of `COc1ccc(S(=O)(=O)N2CCN(C(=O)CCC3CCCC3)CC2)cc1`, the EC50 was > 50 µM (inactive). Consider `CCc1ccc(NC(=O)c2noc3c2CCC3)cc1`, for which the EC50 was 4 µM. Turning to `Cc1ccc(NC2=Nc3ccccc3CC2)cc1`, the EC50 is 2.72 µM. Consider `CC(=O)N(/N=C1\Sc2ccccc2C1=O)c1ccc(C)cc1C`, for which the EC50 was 1.97 µM. On to `C=CCNc1ncnc2c1cnn2-c1ccc(OC)cc1`, for which the EC50 is 8.5 µM.

In the case of `Clc1c(CSc2nc3ccccc3o2)nc2ccccn12`, the EC50 is 12.1 µM. Next, `O=c1c2sc(-c3ccccc3)cc2nc2n1CCC2`: 4.05 µM; `COc1ccc(C(=O)Nc2nnc(-c3ccco3)s2)cc1`: 1.73 µM. Regarding `Cc1nc(NC2=NCN(CCCN3CCOCC3)CN2)nc2c(C)cccc12`, the EC50 was 34.3 µM. `O=C(Nc1cccc(O)c1)c1noc2c1CCCCC2`: the concentration for a half-maximal effect (EC50) was 0.23 µM. On to `COc1ccc(N=CC2=C(O)c3ccccc3C2=O)c(OC)c1`, for which the EC50 was 0.79 µM. Turning to `Cc1nn2cc(-c3ccccc3)nc2s1`, the EC50 is 12.3 µM. For `O=C(N/N=C/c1ccc([N+](=O)[O-])s1)c1ccccc1Br`, the EC50 was 2.8 µM. Take `O=C(/C=C/Nc1cccc(O)c1)c1ccccc1`: the EC50 was 1.32 µM. The result for `Cc1ccc(-c2nnc(SCC(=O)Nc3ccccc3F)o2)cc1` reads 0.6 µM; that for `O=C1c2ccccc2S(=O)(=O)N1Cc1nc2ccccc2s1`, 3.06 µM; that for `CN(C)c1ccc(NC(=S)c2ccccn2)cc1`, 0.4 µM. For the compound `N#C/C(=C\c1ccc(N2CCOCC2)o1)c1nc2ccccc2[nH]1`, the EC50 was 4.32 µM. In the case of `CCOC(=O)C1CCCCN1C(=O)CCc1c(C)nc2cc(-c3ccccc3)nn2c1C` (stereo unspecified), the EC50 is 1.15 µM.

For `Cc1ccc(SCc2cn3c(C)csc3n2)cc1`, the EC50 is 5.82 µM.

Turning to `COc1ccccc1-c1cc(C(F)(F)F)nc(S(=O)(=O)CCCC(=O)N2CCOCC2)n1`, the EC50 was 22 µM.

Take `CN1CCN(c2ncnc3c2cnn3-c2ccc(Cl)cc2)CC1`: the EC50 is 3.9 µM. Take `O=C(Nc1nccs1)c1cc2c(s1)CCCCC2`: the EC50 was 0.55 µM.

In the case of `CCOC(=O)CCS(=O)(=O)c1nc(-c2ccccc2)cc(C(F)(F)F)n1`, the EC50 is 15.7 µM. `CC1CC(C)(C)Nc2ccc(OC(=O)c3ccco3)cc21` (stereo unspecified): the EC50 was 3.01 µM. In the case of `Cc1ccc(C(=O)Nc2nc3c(s2)CCCC3)o1`, the EC50 was 5.98 µM. As to `Cc1cc(NC(=O)CSc2nc(-c3ccco3)cc(C(F)(F)F)n2)no1`, the EC50 is > 50 µM (inactive). `COc1cccc(C(=O)NCCC2=CCCCC2)c1`: the EC50 is 8.74 µM. Turning to `O=C(Nc1nc2ccccc2[nH]1)c1ccccc1`, the EC50 was 3.53 µM. With `CN(C(=O)c1ccco1)c1nc2c(s1)CCCC2`, the EC50 was 7.12 µM. Next, `Brc1ccc(-c2nc(-c3ccccn3)no2)o1`: 2.14 µM. Regarding `Cc1ccccc1Cn1nnc(-c2cccc(C(=O)O)c2)n1`, the EC50 was 18 µM. The result for `O=c1/c(=C/c2ccccn2)sc2nc3ccccc3n12` reads 10 µM; that for `COc1ccc(C2=Nc3ccccc3OC2)cc1`, 38.1 µM.

Consider `c1ccc(-c2ccc(-c3ccccn3)nn2)nc1`, for which the EC50 was 4.2 µM. Take `COc1cccc(-c2nc3cc(C)ccc3o2)c1`: the EC50 is 4.41 µM. The result for `Cc1ccc2nc(-c3cccc(N)c3)[nH]c2c1` reads 2.8 µM; that for `CN1CCN(CC(=O)N2CCn3c4c(c5cc(C6CCCCC6)ccc53)CCCC42)CC1` (stereo unspecified), 12 µM; that for `c1ccc(-c2ccc(-c3nc(-c4ccncc4)no3)cc2)cc1`, 9.02 µM.

In the case of `CN(C)c1nc(-c2ccccn2)nnc1-c1ccccc1`, the EC50 is > 50 µM (inactive). `COC(=O)CCn1nnc(-c2ccc(C(C)C)cc2)n1`: the EC50 was 0.11 µM. Take `CN(C)c1ccc(N/C=C/C(=O)c2ccco2)cc1`: the EC50 is 4.42 µM.

In the case of `CC(=O)Nc1ccc(SCC(=O)c2cc(C)n(Cc3cccs3)c2C)cc1`, the concentration giving a half-maximal response (EC50) is 1.22 µM. As for `Cc1cc(C)c(C)c(S(=O)(=O)Nc2ccccc2C(=O)NCCCn2ccnc2)c1C`, the EC50 is 1.82 µM. As to `O=C(Nc1ccc(CN2CCOCC2)cc1)c1cc2ccccn2n1`, the EC50 was 3.35 µM. Consider `COc1cccc(C(=O)/C=C/Nc2cccc(O)c2)c1`, for which the EC50 was 0.18 µM.

Take `Cc1cc(-c2csc(N)n2)c(C)n1CCC(C)C`: the EC50 is 39.9 µM. On to `c1ccc(-c2noc(-c3cccs3)n2)nc1`, for which the EC50 was > 50 µM (inactive). For the compound `Cc1ccc(C(=O)/C=C2\NCC(C)NC2=O)cc1` (stereo unspecified), the EC50 is 3.53 µM. On to `CC1=NC(=O)C(N=Nc2cccc(C(=O)O)c2)N1c1ccccc1` (stereo unspecified), for which the EC50 was 1.64 µM.

Consider `COC(=O)c1ccc(-c2nc(-c3cccs3)no2)cc1`, for which the EC50 is 1.12 µM. Regarding `CC(C)(C)c1ccc(-c2noc(CCC(N)=O)n2)cc1`, the EC50 is 0.13 µM.

On to `Cc1cccc(-n2ncc3c(N4CCCC4)ncnc32)c1`, for which the EC50 is 7.6 µM.

As for `O=C1c2ccccc2C(=O)C1c1nccc2ccccc12`, the EC50 was 1.83 µM. In the case of `CCN1C=CC(=C2C(=O)c3ccccc3C2=O)C=C1`, the EC50 is 0.2 µM. On to `NC(=O)c1c(NC(=O)c2cc3ccccc3o2)sc2c1CCC2`, for which the EC50 is 6.54 µM.

In the case of `CN1/C(=C/C(=O)c2nc(S(C)(=O)=O)ncc2Cl)C(C)(C)c2ccccc21`, the EC50 is 16.1 µM.

As to `COc1ccc(-c2nsc3c(N4CCCCC4)ncnc23)cc1`, the EC50 was 0.27 µM.

As for `O=C(Nc1ccc(NC(=O)c2ccco2)nc1)c1ccccn1`, the EC50 is 9.01 µM. The result for `O=C(CSc1nnc(-c2ccccc2)o1)Nc1ccccc1F` reads 0.82 µM; that for `Cc1ccc(CNc2nc3ccccc3s2)s1`, 1.67 µM. In the case of `N#Cc1cc2c(nc1SCC(=O)Nc1nccs1)CCCCC2`, the EC50 is 7.77 µM. On to `COc1ccc(O)c(C(=O)CC(=O)c2ccc(F)cc2)c1`, for which the EC50 was 0.57 µM.

Regarding `N#Cc1c(NC(=O)CSc2ncn[nH]2)sc2c1CCCCC2`, the EC50 is under 0.098 µM.

Consider `Cc1c(C(=O)NC2=NCCS2)oc2ccccc12`, for which the EC50 is 9.29 µM. Consider `COc1ccc(-n2ncc3c(NCC(C)C)ncnc32)cc1`, for which the EC50 was 6.31 µM. With `O=C(/C=C\Nc1ccc2c(c1)OCO2)c1ccccn1`, the EC50 was 0.23 µM.

For the compound `Cc1cc(C)n(-c2nc3ccccc3nc2N2CCC(C)CC2)n1`, the EC50 is > 50 µM (inactive). The result for `CCOc1ccc(OCc2ccc(C(=O)O)o2)cc1` reads 5.8 µM. The result for `CCn1c(SCC(=O)Nc2ccccc2C)nnc1-c1ccccc1O` reads > 50 µM (inactive); that for `c1ccc(-c2nc(-c3ccccn3)no2)cc1`, 8.19 µM. In the case of `CC1=CC(C)(C)Nc2ccc(OC(=O)CN3C(=O)CCC3=O)cc21`, the EC50 was 42 µM. On to `O=C1/C(=C/Nc2ccc3c(c2)OCO3)CCc2ccccc21`, for which the half-maximal effective concentration (EC50) was 0.81 µM.

Turning to `Cc1cc(N2CCOCC2)n2ncc(-c3ccccc3)c2n1`, the EC50 is 3.57 µM.

The EC50 is the midpoint of the concentration-response curve.
